Data as given in patent publication US5830851A (Affymax Technologies N.V., priority 1995, dated 1998).
Residues, ends and D or L forms follow the SMILES beside them.

Assays:
[1] = molecular target: T1, murine receptor (FDC-P1/ER cells) (Mus musculus, UniProt P14753); test: Peptide dependent growth of the EPO-responsive cell line FDC-P1/ER (thymidine incorporation); format: cell-based
T1 construct: expressed in transfected cells; host or cells: FDC-P1 (murine bone marrow derived cell line)
T1 sequence (P14753 25-507): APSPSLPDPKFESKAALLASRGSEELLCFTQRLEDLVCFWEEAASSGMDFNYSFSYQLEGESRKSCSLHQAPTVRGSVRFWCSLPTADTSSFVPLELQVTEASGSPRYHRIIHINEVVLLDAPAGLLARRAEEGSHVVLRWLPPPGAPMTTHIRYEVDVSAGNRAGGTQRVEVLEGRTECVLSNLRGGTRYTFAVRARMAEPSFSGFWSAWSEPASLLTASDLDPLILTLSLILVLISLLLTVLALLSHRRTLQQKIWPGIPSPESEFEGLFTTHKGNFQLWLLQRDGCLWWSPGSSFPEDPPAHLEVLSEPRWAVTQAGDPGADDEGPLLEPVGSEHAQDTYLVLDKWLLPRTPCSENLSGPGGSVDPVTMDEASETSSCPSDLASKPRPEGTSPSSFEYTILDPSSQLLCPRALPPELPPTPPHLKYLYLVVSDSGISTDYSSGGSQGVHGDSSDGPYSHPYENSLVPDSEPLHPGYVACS
Description: Sample Preparation: Peptides were resuspended in DMSO as a 1×10^-2 M stock solution and serially diluted in 10-fold increments to generate the following 100× solutions: [formula]
Two μl of each stock dilution was added to a cell well as described below in a total volume of 200 μl to generate final concentrations as follows: [formula]
Cells are counted and resuspended at a concentration of 800,000 cells/ml. Approximately forty thousand cells (50μ) are added to each well of a 96 well microtiter plate. Peptide is added to each well in triplicate. A standard dose response determination is run with each series of peptides. After a forty-two hr incubation (≈2 doubling), each well is pulsed with 1 μCi/well Thymidine. Cells are incubated an additional six hr at which time cells are harvested and counted to assess thymidine incorporation as an indicator of cell proliferation.

[2] = system: murine bone marrow cells; test: Colony assay, murine bone marrow; format: cell-based; details: EPO
Description: (§1) A ten milliliter sample of peripheral blood was obtained from a healthy individual in a standard sterile heparin vacutainer tube. Murine bone marrow was obtained from the femurs of approximately 10 mice per experiment. All reagents were obtained from Stem Cell Technologies Inc. (Vancouver, Canada).
(§2) a. Experimental Protocol: Briefly, a nucleated cell count was performed to establish the number and concentration of nucleated cells in the original sample. In the case of peripheral blood, the sample is subjected to centrifugation through a Ficoll-Hypaque (1.077 g per ml) gradient at 400 g for 30 minutes at room temperature. Mononuclear cells at the interface of the Ficoll-Hypaque solution are carefully removed and diluted to a total volume of about 10 ml. The cells obtained from murine bone marrow or human peripheral blood were collected by centrifugation and the supernatant was decanted. The pelleted cells were resuspended in fresh medium and subjected to collection as described above. The washed cells were diluted in Iscove's medium/2% fetal bovine serum to the following concentration for plating:
Cells were added to methyl cellulose per directions of the manufacturer. […] Equivalent cell numbers were plated in "Complete" methylcellulose medium to assess maximal colony formation. A control plate was run with each assay minus EPO and peptide to determine background colony formation. Colonies were scored after both 10 days and 18 days of incubation.

[3] = system: FDCP-1/muER cells; test: Peptide-induced initiation of cell cycle measured by DNA content; format: cell-based, murine; details: 10 U/ml EPO, ten hours postinduction
Description: 1. Experimental Protocol: FDCP-1/muER cells were grown to stationery phase≈3.0×10^6 cells/ml. […] Three million cells were collected at the following time points: 0, 6, 8, 10, and 12 hr. (see, FIG. 15). Cells were washed twice in cold PBS and fixed by resuspending the cell pellet in 100 μl of cold PBS followed by 900 μl of cold 70% ethanol. Cells were stained with 50 μg/ml of propidium iodine and fluorescence was measured on FACS Scan Flow cytometer. The percentage of cells in each phase was measured using the SOBR model of CellFIT software, by Becton Dickinson.

[4] = system: human peripheral blood mononuclear cells; test: Colony assay, human peripheral blood; format: cell-based
Description: as §1, §2
Cells were added to methyl cellulose per directions of the manufacturer. […] Equivalent cell numbers were plated in "Complete" methylcellulose medium to assess maximal colony formation. A control plate was run with each assay minus EPO and peptide to determine background colony formation. […]

[5] = Table 14, 1/28/94 experiment, scored 2/10/94
[6] = Table 14, 1/28/94 experiment, scored 2/21/94
[7] = Table 15, 2/21/94 experiment, scored 3/1/94
[8] = Table 15, 2/21/94 experiment, scored 3/14/94
[9] = set up 2/10/94, scored 2/23/94, EPO 3U/ml
[10] = set up 2/10/94, scored 2/23/94, EPO (METHOCULT)
[11] = set up 2/10/94, scored 3/4/94, EPO 3U/ml
[12] = set up 2/10/94, scored 3/4/94, EPO (METHOCULT)

CC(C)C[C@@H]1NC(=O)[C@@H]2CCCN2C(=O)CNC(=O)[C@H](Cc2ccccc2)NC(=O)[C@H](Cc2c[nH]cn2)NC(=O)[C@@H](NC(=O)[C@H](CO)NC(=O)[C@@H](N)Cc2ccc(O)cc2)CSSC[C@@H](C(N)=O)NC(=O)[C@H](C(C)C)NC(=O)[C@H](Cc2c[nH]c3ccccc23)NC(=O)[C@H]([C@@H](C)O)NC1=O [RWJ 61477] (HELM PEPTIDE1{Y.S.C.H.F.G.P.L.T.W.V.C.[am]}$PEPTIDE1,PEPTIDE1,3:R3-12:R3$$$V2.0)
EC50 [1]: 1000 nM

EPO: Erythropoietin, a glycoprotein hormone with 165 amino acids; recombinant standard
BFU-E colony-forming cell numbers [2, 5]: 5 | CFU-E colony-forming cell numbers [2, 5]: 23 | CFU-GM colony-forming cell numbers [2, 5]: 3 | BFU-E colony-forming cell numbers [2, 6]: 30 | CFU-E colony-forming cell numbers [2, 6]: 0 | CFU-GM colony-forming cell numbers [2, 6]: 3 | BFU-E colony-forming cell numbers [2, 7]: 3 | CFU-E colony-forming cell numbers [2, 7]: 3 | CFU-GM colony-forming cell numbers [2, 7]: > 10 | CFU-E colony-forming cell numbers [2, 8]: 0 | CFU-GM colony-forming cell numbers [2, 8]: 26 | MBFU-E colony-forming cell numbers [2, 8]: 0 | PBFU-E colony-forming cell numbers [2, 8]: 10 | cells in S phase [3]: approximately 45% | CFU-E [4, 9]: 7 | MBFU-E [4, 9]: 7 | CFU-E [4, 10]: 11 | MBFU-E [4, 10]: 25 | CFU-E [4, 11]: 4 | CFU-GM [4, 11]: 3 | MBFU-E [4, 11]: 7 | PBFU-E [4, 11]: 7 | CFU-E [4, 12]: 1 | CFU-GM [4, 12]: 9 | MBFU-E [4, 12]: 11 | PBFU-E [4, 12]: 13
